Assay results reported in ChEMBL document CHEMBL1201862, “PubChem BioAssay data set” (2004).
Active and inactive are the calls of the source.

Tests used:
Assay type in all cases: functional
CHO-K1 = experiment: (§1) Counterscreen for antagonists of the orexin 1 receptor (OX1R; HCRTR1): Homogeneous time resolved fluorescence (HTRF)-based cell-based dose response assay to identify antagonists of the parental CHO-K1 cell line. [Related pubchem assays (depositor defined):AID434989, AID435008, AID463079, AID485270, AID492963, AID492964, AID492965, AID493232, AID504699, AID504701]; details: Cricetulus griseus
[1] = molecular target: T1, Orexin/Hypocretin receptor type 1 (Homo sapiens, UniProt O43613); experiment: Homogeneous Time Resolved Fluorescence (HTRF)-based cell-based high throughput dose response assay for antagonists of the orexin 1 receptor (OX1R; HCRTR1). [Related pubchem assays (depositor defined):AID434989, AID435008, AID463079, AID485270, AID492963, AID492964, AID492965, AID493232, AID504717, AID504718]
T1 sequence (O43613 whole entry): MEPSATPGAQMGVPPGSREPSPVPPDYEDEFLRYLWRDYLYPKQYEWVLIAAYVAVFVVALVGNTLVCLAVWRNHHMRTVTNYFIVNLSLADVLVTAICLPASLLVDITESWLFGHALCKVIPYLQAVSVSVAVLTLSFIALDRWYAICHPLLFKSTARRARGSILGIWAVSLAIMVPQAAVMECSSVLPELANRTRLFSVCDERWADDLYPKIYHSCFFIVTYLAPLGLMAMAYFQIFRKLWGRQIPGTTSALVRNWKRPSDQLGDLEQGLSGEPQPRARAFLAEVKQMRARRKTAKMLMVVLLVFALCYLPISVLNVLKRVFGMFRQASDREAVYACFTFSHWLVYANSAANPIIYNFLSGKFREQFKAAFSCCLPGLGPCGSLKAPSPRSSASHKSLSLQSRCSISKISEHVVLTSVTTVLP

Orexin receptor type 2 [2] = molecular target: T2, Orexin receptor type 2 (Homo sapiens, UniProt O43614); experiment: Counterscreen assay for antagonists of the orexin 1 receptor (OX1R; HCRTR1): Homogeneous Time Resolved Fluorescence (HTRF)-based cell-based dose response assay for antagonists of the orexin 2 receptor (OX2R; HCRTR2), run by assay provider.
T2 sequence (O43614 whole entry): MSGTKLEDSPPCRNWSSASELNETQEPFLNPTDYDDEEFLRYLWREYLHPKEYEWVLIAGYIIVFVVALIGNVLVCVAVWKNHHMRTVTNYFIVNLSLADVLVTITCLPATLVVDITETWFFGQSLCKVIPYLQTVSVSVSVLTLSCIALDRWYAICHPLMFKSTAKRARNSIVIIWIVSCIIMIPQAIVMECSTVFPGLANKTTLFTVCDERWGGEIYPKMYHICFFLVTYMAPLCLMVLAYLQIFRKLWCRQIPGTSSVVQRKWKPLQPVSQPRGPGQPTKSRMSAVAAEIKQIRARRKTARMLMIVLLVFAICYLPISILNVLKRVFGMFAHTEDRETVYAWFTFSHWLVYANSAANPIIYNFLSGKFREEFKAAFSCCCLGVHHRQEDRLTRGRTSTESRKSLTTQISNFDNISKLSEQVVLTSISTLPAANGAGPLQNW

Orexin receptor type 2 [3] = molecular target: T2, Orexin receptor type 2; experiment: Counterscreen assay for antagonists of the orexin 1 receptor (OX1R; HCRTR1): Fluorescence-based cell-based dose response assay for antagonists of the orexin 2 receptor (OX2R; HCRTR2), run by assay provider.
[4] = as §1, with “Fluorescence-based” for “Homogeneous time resolved fluorescence (HTRF)-based”, “cell-based high throughput” for “cell-based”, “CHO” for “CHO-K1”
[5] = molecular target: T1, Orexin/Hypocretin receptor type 1; experiment: Fluorescence-based cell-based high throughput dose response assay for antagonists of the orexin 1 receptor (OX1R; HCRTR1). [Related pubchem assays (depositor defined):AID434989, AID435008, AID463079, AID485270, AID492963, AID492964, AID492965, AID493232, AID504717, AID504718]
[6] = molecular target: Tyrosine-protein kinase Lyn (Homo sapiens, UniProt P07948);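 also: lyn as one member of a kinase panel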
Tyrosine-protein kinase Lyn, sequence (P07948 whole entry): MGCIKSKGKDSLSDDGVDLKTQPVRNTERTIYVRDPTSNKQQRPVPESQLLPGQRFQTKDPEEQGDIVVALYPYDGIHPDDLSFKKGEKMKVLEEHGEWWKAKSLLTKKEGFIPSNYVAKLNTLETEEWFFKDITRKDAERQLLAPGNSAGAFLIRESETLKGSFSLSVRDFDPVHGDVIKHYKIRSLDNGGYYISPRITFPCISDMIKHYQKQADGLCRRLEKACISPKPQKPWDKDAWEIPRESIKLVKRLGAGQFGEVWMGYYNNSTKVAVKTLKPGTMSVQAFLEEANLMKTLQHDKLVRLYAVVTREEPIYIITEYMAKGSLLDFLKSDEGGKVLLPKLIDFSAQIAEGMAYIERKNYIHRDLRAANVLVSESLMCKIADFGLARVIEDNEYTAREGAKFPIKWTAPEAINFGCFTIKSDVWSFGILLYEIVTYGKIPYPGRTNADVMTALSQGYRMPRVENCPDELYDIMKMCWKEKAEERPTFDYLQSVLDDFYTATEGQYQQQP

[7] = molecular target: Tyrosine-protein kinase Fyn (Homo sapiens, UniProt P06241)
[8] = molecular target: Tyrosine-protein kinase ABL1 (Homo sapiens, UniProt P00519)
[9] = molecular target: Proto-oncogene tyrosine-protein kinase Src (Homo sapiens, UniProt P12931);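 also: SRC entry within a kinome-wide kinase profiling panel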
Proto-oncogene tyrosine-protein kinase Src, sequence (P12931 2-536 limits assumed): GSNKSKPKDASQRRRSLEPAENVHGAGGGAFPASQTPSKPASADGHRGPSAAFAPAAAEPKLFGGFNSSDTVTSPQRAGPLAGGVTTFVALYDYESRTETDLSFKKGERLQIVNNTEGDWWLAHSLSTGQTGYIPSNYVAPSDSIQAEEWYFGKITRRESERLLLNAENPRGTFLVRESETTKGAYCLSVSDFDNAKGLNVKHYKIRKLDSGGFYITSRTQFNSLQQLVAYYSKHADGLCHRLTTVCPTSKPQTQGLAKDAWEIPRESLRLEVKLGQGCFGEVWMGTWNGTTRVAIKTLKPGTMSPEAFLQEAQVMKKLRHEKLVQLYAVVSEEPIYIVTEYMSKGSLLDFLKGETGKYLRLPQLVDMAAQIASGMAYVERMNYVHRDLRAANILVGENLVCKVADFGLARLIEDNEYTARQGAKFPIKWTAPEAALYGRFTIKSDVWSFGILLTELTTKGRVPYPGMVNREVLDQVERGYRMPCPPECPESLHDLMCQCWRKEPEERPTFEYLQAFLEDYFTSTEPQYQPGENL

[10] = molecular target: Tyrosine-protein kinase Blk (Homo sapiens, UniProt P51451);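 also: obtained as one member of a kinome-wide kinase assay panel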
Tyrosine-protein kinase Blk, sequence (P51451 whole entry): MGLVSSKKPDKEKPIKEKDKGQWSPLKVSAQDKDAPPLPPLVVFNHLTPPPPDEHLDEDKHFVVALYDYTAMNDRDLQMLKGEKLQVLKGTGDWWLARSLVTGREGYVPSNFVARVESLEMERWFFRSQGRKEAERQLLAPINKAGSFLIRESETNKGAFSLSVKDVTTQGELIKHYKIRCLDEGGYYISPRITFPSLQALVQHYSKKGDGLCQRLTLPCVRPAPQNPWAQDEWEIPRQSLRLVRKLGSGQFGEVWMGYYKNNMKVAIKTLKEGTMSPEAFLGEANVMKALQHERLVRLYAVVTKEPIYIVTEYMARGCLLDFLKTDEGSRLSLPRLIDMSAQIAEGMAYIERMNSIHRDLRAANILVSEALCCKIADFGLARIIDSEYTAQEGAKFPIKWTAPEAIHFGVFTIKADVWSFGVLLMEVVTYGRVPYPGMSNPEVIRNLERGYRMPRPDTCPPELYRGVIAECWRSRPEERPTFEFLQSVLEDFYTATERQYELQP

[11] = molecular target: Tyrosine-protein kinase Lck (Homo sapiens, UniProt P06239);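 also: lck was assayed as one member of a kinase panel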
Tyrosine-protein kinase Lck, sequence (P06239 whole entry): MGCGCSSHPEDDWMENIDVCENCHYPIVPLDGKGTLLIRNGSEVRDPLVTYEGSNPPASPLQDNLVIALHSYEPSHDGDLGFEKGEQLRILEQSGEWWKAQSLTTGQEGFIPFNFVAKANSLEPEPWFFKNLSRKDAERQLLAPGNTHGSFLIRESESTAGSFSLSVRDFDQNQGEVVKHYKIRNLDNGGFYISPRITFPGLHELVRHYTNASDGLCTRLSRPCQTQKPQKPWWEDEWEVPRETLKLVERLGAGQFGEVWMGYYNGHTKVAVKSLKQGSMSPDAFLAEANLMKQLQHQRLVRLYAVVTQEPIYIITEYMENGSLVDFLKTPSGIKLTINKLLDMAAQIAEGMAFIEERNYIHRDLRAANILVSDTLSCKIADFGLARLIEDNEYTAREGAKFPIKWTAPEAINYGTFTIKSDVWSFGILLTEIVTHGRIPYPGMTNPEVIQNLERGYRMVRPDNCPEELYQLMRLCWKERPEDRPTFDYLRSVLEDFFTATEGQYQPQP

[12] = molecular target: Mast/stem cell growth factor receptor Kit (Homo sapiens, UniProt P10721);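 also: KIT entry within a kinase panel assay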
Mast/stem cell growth factor receptor Kit, sequence (P10721 whole entry): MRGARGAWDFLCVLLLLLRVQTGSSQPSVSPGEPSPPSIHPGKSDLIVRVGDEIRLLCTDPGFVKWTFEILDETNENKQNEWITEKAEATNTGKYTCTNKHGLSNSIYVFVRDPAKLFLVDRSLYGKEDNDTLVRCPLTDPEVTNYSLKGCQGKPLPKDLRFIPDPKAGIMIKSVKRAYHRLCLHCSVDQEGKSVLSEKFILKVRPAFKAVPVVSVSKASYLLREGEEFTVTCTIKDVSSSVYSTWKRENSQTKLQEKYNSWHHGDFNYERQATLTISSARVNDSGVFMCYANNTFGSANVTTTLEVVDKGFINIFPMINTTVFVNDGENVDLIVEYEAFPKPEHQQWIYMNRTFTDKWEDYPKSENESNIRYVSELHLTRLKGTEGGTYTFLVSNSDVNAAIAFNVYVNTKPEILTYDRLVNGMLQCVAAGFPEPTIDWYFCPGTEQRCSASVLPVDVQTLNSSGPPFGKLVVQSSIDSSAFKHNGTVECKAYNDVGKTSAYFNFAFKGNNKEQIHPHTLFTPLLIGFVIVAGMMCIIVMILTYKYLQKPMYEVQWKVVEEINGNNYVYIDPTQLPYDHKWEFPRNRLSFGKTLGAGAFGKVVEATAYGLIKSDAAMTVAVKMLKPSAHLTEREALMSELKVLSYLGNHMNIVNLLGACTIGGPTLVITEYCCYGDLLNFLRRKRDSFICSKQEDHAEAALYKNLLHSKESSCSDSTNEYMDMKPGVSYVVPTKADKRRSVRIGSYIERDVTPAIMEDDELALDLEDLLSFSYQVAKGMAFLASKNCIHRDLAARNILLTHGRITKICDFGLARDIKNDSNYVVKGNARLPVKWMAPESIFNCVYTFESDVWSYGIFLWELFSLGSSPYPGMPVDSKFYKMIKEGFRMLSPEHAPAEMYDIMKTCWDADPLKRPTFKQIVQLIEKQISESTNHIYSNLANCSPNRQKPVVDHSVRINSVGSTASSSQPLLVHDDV

[13] = molecular target: Vascular endothelial growth factor receptor 3 (Homo sapiens, UniProt P35916);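 also: value from a kinome-wide profiling panel, with FLT4 as the panel member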
[14] = molecular target: Receptor-type tyrosine-protein kinase FLT3 (Homo sapiens, UniProt P36888);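 also: FLT3 was tested as one member of a kinome-wide kinase panel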
Receptor-type tyrosine-protein kinase FLT3, sequence (P36888 whole entry): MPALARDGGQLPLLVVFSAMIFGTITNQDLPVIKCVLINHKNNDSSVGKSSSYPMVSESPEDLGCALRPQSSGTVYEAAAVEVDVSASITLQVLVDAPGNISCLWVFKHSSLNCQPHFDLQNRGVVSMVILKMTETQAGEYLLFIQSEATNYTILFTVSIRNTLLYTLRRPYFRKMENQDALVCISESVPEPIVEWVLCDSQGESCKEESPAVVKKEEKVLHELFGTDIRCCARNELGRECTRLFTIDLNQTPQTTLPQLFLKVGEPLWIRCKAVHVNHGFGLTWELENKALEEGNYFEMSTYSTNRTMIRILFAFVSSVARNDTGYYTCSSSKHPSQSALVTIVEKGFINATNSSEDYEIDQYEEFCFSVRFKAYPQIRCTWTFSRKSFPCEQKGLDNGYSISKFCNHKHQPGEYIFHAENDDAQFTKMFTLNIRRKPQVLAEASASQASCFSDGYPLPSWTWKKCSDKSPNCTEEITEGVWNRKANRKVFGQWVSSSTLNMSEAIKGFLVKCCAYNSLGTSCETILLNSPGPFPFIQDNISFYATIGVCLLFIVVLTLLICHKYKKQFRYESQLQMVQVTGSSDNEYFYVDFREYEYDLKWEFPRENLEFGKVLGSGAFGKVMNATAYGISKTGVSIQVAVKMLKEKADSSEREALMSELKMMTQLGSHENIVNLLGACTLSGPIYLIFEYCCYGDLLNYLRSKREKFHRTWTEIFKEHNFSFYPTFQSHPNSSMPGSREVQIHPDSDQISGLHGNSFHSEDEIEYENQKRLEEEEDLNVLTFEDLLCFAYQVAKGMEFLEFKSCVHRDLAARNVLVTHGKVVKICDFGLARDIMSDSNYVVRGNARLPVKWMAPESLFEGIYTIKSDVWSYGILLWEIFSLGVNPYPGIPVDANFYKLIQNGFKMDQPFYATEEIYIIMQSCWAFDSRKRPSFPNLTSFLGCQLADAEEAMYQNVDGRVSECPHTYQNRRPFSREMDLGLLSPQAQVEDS

[15] = molecular target: Macrophage colony-stimulating factor 1 receptor (Homo sapiens, UniProt P07333);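 also: value comes from the Navigating the Kinome screening panel, CSF1R member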
Macrophage colony-stimulating factor 1 receptor, sequence (P07333 whole entry): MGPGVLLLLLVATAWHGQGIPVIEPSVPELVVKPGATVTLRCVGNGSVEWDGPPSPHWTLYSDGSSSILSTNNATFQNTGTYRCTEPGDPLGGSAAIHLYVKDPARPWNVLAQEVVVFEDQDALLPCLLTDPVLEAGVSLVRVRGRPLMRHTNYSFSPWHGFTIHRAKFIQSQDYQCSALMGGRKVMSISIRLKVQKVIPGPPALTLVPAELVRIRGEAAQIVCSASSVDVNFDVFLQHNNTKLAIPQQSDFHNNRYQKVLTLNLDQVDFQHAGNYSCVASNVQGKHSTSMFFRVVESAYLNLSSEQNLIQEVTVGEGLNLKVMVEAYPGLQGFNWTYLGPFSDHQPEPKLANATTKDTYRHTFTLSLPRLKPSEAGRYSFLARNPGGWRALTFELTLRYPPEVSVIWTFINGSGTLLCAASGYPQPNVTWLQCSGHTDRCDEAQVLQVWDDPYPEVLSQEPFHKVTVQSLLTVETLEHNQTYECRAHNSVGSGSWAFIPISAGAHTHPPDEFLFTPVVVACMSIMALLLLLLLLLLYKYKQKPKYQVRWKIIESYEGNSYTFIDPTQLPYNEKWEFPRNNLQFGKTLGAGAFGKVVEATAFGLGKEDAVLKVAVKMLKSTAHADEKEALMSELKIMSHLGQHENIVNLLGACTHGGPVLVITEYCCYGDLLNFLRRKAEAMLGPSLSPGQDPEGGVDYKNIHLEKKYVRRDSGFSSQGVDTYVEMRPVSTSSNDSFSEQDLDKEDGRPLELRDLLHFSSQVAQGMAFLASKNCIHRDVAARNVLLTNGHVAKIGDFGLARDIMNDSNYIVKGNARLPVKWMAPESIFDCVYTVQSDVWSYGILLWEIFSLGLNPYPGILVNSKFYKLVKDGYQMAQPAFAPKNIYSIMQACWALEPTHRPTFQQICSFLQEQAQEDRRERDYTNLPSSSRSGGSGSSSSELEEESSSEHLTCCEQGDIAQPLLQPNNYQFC

[16] = molecular target: Vascular endothelial growth factor receptor 1 (Homo sapiens, UniProt P17948);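 also: measured within a kinome-wide profiling panel, FLT1 as the panel member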
[17] = molecular target: Vascular endothelial growth factor receptor 2 (Homo sapiens, UniProt P35968)
[18] = molecular target: T3, Sentrin-specific protease 6 (Homo sapiens, UniProt Q9GZR1); experiment: SAR Analysis of small molecule inhibitors of Sentrin-specific protease 6 (SENP6) using a Luminescent assay. [Related pubchem assays (depositor defined):AID2582, AID2599]
T3 sequence (Q9GZR1 whole entry): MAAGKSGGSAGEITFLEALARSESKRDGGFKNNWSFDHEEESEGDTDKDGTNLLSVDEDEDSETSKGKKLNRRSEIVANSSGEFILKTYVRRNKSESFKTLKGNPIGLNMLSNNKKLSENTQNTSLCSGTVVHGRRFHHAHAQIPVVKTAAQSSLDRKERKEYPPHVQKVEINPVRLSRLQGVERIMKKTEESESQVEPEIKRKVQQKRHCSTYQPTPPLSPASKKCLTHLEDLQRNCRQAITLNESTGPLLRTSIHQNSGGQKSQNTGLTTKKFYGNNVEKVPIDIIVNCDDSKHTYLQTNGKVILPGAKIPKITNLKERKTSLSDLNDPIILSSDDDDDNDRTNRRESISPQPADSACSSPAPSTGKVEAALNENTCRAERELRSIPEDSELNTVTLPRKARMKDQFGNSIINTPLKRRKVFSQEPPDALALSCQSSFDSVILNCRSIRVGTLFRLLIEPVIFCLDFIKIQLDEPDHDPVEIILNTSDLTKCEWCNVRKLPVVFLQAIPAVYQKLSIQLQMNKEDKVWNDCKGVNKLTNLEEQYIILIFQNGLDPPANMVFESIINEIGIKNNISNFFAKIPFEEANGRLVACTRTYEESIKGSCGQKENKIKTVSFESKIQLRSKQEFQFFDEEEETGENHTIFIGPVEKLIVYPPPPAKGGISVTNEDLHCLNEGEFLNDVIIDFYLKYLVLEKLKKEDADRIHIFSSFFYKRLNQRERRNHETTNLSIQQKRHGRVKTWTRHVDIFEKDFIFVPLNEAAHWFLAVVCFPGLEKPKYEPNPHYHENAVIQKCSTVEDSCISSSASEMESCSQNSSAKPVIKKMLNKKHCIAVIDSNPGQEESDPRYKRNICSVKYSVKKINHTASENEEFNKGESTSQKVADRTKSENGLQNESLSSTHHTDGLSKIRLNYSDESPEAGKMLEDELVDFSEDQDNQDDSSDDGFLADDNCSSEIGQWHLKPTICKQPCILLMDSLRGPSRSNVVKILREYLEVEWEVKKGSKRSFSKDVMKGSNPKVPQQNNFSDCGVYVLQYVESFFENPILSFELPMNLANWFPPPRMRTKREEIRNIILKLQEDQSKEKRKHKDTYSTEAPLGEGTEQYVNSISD

[19] = molecular target: T4, Sentrin-specific protease 7 (Homo sapiens, UniProt Q9BQF6); experiment: SENP7 protease inhibitors, SAR follow-up, biochemical, luminescence (AID 504497)
T4 sequence (Q9BQF6 whole entry): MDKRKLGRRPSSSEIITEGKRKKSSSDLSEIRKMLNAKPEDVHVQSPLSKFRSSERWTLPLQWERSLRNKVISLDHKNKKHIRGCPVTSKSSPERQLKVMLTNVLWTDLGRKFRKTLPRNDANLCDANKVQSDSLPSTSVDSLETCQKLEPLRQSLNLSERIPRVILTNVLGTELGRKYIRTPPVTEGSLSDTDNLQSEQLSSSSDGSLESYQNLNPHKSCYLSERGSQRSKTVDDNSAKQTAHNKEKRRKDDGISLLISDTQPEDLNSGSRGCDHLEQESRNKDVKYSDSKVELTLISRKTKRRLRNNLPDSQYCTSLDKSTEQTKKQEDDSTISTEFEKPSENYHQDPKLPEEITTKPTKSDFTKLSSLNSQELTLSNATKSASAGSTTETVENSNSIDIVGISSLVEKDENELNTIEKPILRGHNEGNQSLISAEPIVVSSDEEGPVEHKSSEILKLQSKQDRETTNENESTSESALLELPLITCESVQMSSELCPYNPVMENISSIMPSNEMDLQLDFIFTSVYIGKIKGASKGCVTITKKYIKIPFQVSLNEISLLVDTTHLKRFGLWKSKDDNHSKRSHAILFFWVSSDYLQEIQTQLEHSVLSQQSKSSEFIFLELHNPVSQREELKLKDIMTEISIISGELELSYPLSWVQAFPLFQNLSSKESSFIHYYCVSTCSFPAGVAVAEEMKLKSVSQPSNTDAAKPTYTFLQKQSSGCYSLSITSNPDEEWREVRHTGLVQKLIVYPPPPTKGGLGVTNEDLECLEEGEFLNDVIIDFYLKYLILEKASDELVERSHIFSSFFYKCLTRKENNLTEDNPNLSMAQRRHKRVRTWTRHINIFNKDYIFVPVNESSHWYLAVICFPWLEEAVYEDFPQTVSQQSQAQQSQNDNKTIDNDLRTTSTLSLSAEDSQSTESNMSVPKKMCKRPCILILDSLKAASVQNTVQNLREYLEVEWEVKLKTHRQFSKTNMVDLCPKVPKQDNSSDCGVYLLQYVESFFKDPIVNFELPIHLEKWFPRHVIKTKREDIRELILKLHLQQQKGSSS

Caspase-3 = molecular target: T5, Caspase-3 (Homo sapiens, UniProt P42574); experiment: SAR Analysis of small molecule inhibitors of Sentrin-specific proteases (SENPs) using a Caspase-3 Selectivity assay. [Related pubchem assays (depositor defined):AID2540, AID2599, AID434973, AID489001]
T5 sequence (P42574 whole entry): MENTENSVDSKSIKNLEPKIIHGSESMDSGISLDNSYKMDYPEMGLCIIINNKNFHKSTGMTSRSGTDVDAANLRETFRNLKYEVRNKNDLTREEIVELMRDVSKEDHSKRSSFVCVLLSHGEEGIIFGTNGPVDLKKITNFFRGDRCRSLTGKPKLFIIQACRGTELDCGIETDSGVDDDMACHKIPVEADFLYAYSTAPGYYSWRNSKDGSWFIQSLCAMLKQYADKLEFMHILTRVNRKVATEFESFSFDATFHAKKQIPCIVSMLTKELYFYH

[20] = molecular target: T6, Sentrin-specific protease 8 (Homo sapiens, UniProt Q96LD8); experiment: SENP8 protease inhibitors, SAR follow-up, biochemical, luminescence (AID 504501)
T6 sequence (Q96LD8 whole entry): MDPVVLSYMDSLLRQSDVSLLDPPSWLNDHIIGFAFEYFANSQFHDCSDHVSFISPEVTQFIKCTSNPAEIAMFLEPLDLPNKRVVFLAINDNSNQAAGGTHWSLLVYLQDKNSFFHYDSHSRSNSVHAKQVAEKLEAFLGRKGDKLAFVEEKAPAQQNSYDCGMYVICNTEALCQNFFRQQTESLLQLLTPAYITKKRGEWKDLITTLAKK

CN(C)c1ccc(NC(=S)c2ccc3ccccc3n2)cc1
IC50 (CHO-K1): > 66.3 µM (inactive)
IC50 [1]: 2.86 µM (active)
IC50 (Orexin receptor type 2 [2]): > 50 µM (inactive)
IC50 (Orexin receptor type 2 [3]): > 88.8 µM (inactive)
IC50 [4]: > 49.8 µM (inactive)
IC50 [5]: 6.04 µM (active)

Cn1nc(N)c2c(-c3ccc(NC(=O)Nc4cccc(C(F)(F)F)c4)cc3)ccnc21
Ki [6]: 0.126 µM (active)
Ki [7]: 0.501 µM (active)
Ki [8]: 0.2 µM (active)
Ki [9]: 0.794 µM (active)
Ki [10]: 0.398 µM (active)
Ki [11]: 0.316 µM (active)
Ki [12]: 0.000794 µM (active)
Ki [13]: 0.00158 µM (active)
Ki [14]: 0.00158 µM (active)
Ki [15]: 0.00251 µM (active)
Ki [16]: 0.000316 µM (active)
Ki [17]: 0.000631 µM (active)

ON(O)c1ccc(N/N=C/c2c[nH]c3ccccc23)cc1
IC50 [18]: > 99 µM (inactive)
IC50 [19]: > 99 µM (inactive)
IC50 (Caspase-3): > 99 µM (inactive)
IC50 [20]: > 99 µM (inactive)

COc1ccc2sc(-c3ccc(N(C)C)cc3)c(C#CCO)c2c1
IC50 (CHO-K1): > 66.2 µM (inactive)
IC50 [1]: 6.09 µM (active)
IC50 (Orexin receptor type 2 [2]): > 50 µM (inactive)
IC50 (Orexin receptor type 2 [3]): 37.4 µM (inactive)
IC50 [4]: > 49.7 µM (inactive)
IC50 [5]: 10.3 µM (inactive)
